Laboratory results: ChEMBL document CHEMBL5360542, “Current development of β-carboline derived potential antimalarial scaffolds” (Eur J Med Chem, 2023)
pIC50: −log10 of the molar value.

Assays:
Format in all cases: functional, organism-based
[1] = test system: Plasmodium falciparum; assay: Antiplasmodial activity against multi-resistant Plasmodium falciparum W2 infected in erythrocytes assessed as inhibition of parasite growth incubated for 48 hrs by flow cytometry; details: W2, Erythrocyte
[2] = test system: Plasmodium falciparum; assay: Antimalarial activity against chloroquine-resistant Plasmodium falciparum FcB1 assessed as inhibition of parasite growth
[3] = test system: Plasmodium falciparum; assay: Antimalarial activity against Plasmodium falciparum 3D7 infected in human A positive erythrocytes assessed as reduction in parasite growth incubated for 24 hrs by [3H]hypoxanthine based scintillation counting analysis; details: 3D7, Erythrocyte
[4] = test system: Plasmodium falciparum; assay: Antimalarial activity against chloroquine-resistant Plasmodium falciparum K1 infected in human A positive erythrocytes assessed as reduction in parasite growth incubated for 24 hrs by [3H]hypoxanthine based scintillation counting analysis; details: K1, Erythrocyte
[5] = test system: Plasmodium falciparum; assay: Antiplasmodial activity against chloroquine-sensitive erythrocyte stage Plasmodium falciparum 3D7 assessed as inhibition of parasite growth incubated for 3 days by ELISA; details: 3D7, Erythrocyte, 72 h
[6] = test system: Plasmodium falciparum; assay: Antiplasmodial activity against chloroquine-resistant erythrocyte stage Plasmodium falciparum Dd2 assessed as inhibition of parasite growth incubated for 3 days by ELISA; details: 72 h
[7] = test system: Plasmodium falciparum; assay: Antimalarial activity against chloroquine-resistant Plasmodium falciparum K1
[8] = test system: Plasmodium falciparum; assay: Antimalarial activity against Plasmodium falciparum 3D7 infected in erythrocytes assessed as inhibition of parasite growth incubated for 48 hrs by SYBR-Green I fluorescence-based assay; details: 3D7, Erythrocyte
[9] = test system: Plasmodium falciparum; assay: Antimalarial activity against Plasmodium falciparum INDO infected in erythrocytes assessed as inhibition of parasite growth incubated for 48 hrs by SYBR-Green I fluorescence-based assay; details: Erythrocyte
[10] = test system: Plasmodium falciparum; assay: Antimalarial activity against chloroquine-resistant Plasmodium falciparum W2 transfected in human type A-positive RBC cells assessed reduction in parasite growth by measuring LDH activity incubated for 72 hrs by spectrophotometric analysis; details: Plasmodium falciparum, W2, Erythrocyte, 72 h
[11] = test system: Plasmodium falciparum; assay: Antimalarial activity against chloroquine-sensitive Plasmodium falciparum D10 transfected in human type A-positive RBC cells assessed reduction in parasite growth by measuring LDH activity incubated for 72 hrs by spectrophotometric analysis; details: Plasmodium falciparum, D10, Erythrocyte, 72 h
[12] = test system: Plasmodium falciparum; assay: Antimalarial activity against chloroquine-resistant Plasmodium falciparum K1 assessed as reduction in parasite growth incubated for 72 hrs by ELISA; details: K1, 72 h
[13] = test system: Plasmodium falciparum; assay: Antimalarial activity against chloroquine-sensitive Plasmodium falciparum 3D7 assessed as reduction in parasite growth
[14] = test system: Plasmodium falciparum; assay: Antimalarial activity against chloroquine-resistant Plasmodium falciparum K1 assessed as reduction in parasite growth

With `COc1ccc(C2NCCc3c2[nH]c2ccccc32)cc1` (configuration not stated) the pIC50 [1] was 6.15.

`COC(=O)c1cc2c([nH]c3ccccc32)c(C(=O)c2c[nH]c3ccccc23)n1` was tested, and the pIC50 [2] was 4.63.

Compound `Clc1ccc(C2NCCc3c2[nH]c2ccccc32)cc1` (configuration not stated) has a pIC50 [1] of 5.32.

`CCN(CC)CCCNc1nccc2c1[nH]c1ccc(Cl)cc12` gave a pIC50 [3] of 6.82.

With `CCN(CC)CCCNc1nccc2c1[nH]c1ccc(F)cc12` the pIC50 [3] was 6.22 and the pIC50 [4] was 6.52.

With `O=C(O)c1cc2c([nH]c3ccccc32)c(-c2c[nH]c3ccccc23)n1` the pIC50 [2] was < 4.51.

`Brc1ccc(C2NCCc3c2[nH]c2ccccc32)cc1` (configuration not stated) gave a pIC50 [1] of 5.16.

`Clc1ccc2[nH]c3c(N4CCC(N5CCCC5)CC4)nccc3c2c1` gave a pIC50 [3] of 6.03 and a pIC50 [4] of 5.99.

With `Clc1ccc2[nH]c3c(N4CCC(N5CCCCC5)CC4)nccc3c2c1` the pIC50 [3] was 4.99 and the pIC50 [4] was 5.58.

`CN(C)c1ccc(C2NCCc3c2[nH]c2ccccc32)cc1` (configuration not stated) showed a pIC50 [1] of 5.41.

`O=[N+]([O-])c1ccc(C2NCCc3c2[nH]c2ccccc32)cc1` (configuration not stated) was tested, and the pIC50 [1] was 5.77.

Work on `CCN(CC)C1CCN(c2nccc3c2[nH]c2ccc(Cl)cc23)CC1` yielded a pIC50 [3] of 5.80 and a pIC50 [4] of 5.93.

In the case of `Fc1ccc(C2NCCc3c2[nH]c2ccccc32)cc1` (configuration not stated), the pIC50 [1] was 5.96.

With `COc1ccc(/C=C/C(=O)NCCn2c3cc(OC)ccc3c3ccnc(C)c32)cc1` the pIC50 [5] was 6.59 and the pIC50 [6] was 6.31.

In the case of `COc1ccc2[nH]cc(C(=O)c3nccc4c3[nH]c3ccc(OC)cc34)c2c1`, the pIC50 [2] was 6.00.

In the case of `C/C=C/C(=O)N1CCc2c(n(C(=O)OC(C)(C)C)c3ccccc23)C1CC(=O)OCC` (configuration not stated), the pIC50 [7] was 4.82.

`CCOC(=O)c1cc2c([nH]c3ccccc32)c(-c2ccc(/N=C(/Nc3ccccc3)NC3CC3)cc2)n1` showed a pIC50 [8] of 6.00 and a pIC50 [9] of 6.22.

With `CC(C)(C)CCNC(=O)C1Cc2c([nH]c3ccccc23)C(c2ccc(Cl)cc2)N1` (configuration not stated) the pIC50 [10] was 5.11 and the pIC50 [11] was 4.98.

Work on `CC(C)(C)OC(=O)n1cc(CC2NCCc3c2[nH]c2ccccc32)c2ccccc21` (configuration not stated) yielded a pIC50 [2] of 5.07.

Work on `C/C=C/C(=O)N1CCc2c([nH]c3ccccc23)C1CC(=O)OCC` (configuration not stated) yielded a pIC50 [12] of 4.86.

Compound `CCOC(=O)c1cc2c([nH]c3ccccc32)c(-c2ccc(N)cc2)n1` has a pIC50 [8] of 4.42 and a pIC50 [9] of 4.41.

In the case of `CCOC(=O)c1cc2c([nH]c3ccccc32)c(-c2ccc(NC(=S)Nc3ccccc3)cc2)n1`, the pIC50 [8] was 5.19 and the pIC50 [9] was 6.19.

In the case of `C=C(C)CC1OC(C)=Cn2c3ccccc3c3cc(C(=O)OC)nc1c32` (configuration not stated), the pIC50 [13] was < 5.30.

`C=CCC1OC(C)=Cn2c3ccccc3c3cc(C(=O)OC)nc1c32` (configuration not stated) was tested, and the pIC50 [13] was < 5.30 and the pIC50 [14] was < 5.30.

`CCN(CC)CCCC(C)Nc1nccc2c1[nH]c1ccc(F)cc12` (configuration not stated) was tested, and the pIC50 [3] was 6.43 and the pIC50 [4] was 5.92.

For `COC(=O)c1cc2c3cc(Br)ccc3n3c2c(n1)COC(C)=C3`, the pIC50 [13] was < 5.30.

Compound `C=C(CC1OC(C)=Cn2c3ccccc3c3cc(C(=O)OC)nc1c32)C(=O)OC` (configuration not stated) has a pIC50 [13] of 6.24 and a pIC50 [14] of 6.14.

Work on `Cc1nccc2c1[nH]c1cc(OCCNC(=O)/C=C/c3cccc(Br)c3)ccc12` yielded a pIC50 [5] of 6.43 and a pIC50 [6] of 6.32.

`CON(C)C(=O)CC1c2c(c3ccccc3n2C(=O)OC(C)(C)C)CCN1C(=O)OCc1ccccc1` (configuration not stated) showed a pIC50 [7] of 4.86.

In the case of `COc1ccc2c3ccnc(C)c3n(CCNC(=O)/C=C/c3ccc(F)cc3)c2c1`, the pIC50 [5] was 7.05 and the pIC50 [6] was 6.48.

In the case of `COC(=O)c1cc2c3ccccc3n3c2c(n1)C(C1C=CCCC1)OC(C)=C3` (configuration not stated), the pIC50 [13] was 5.79 and the pIC50 [14] was < 5.30.

For `COC(=O)c1cc2c3ccccc3n3c2c(n1)C(CC=C(C)C)OC(C)=C3` (configuration not stated), the pIC50 [13] was < 5.30 and the pIC50 [14] was < 5.30.

`COc1ccc2c3ccnc(C)c3n(CCNC(=O)/C=C/c3cccc(F)c3)c2c1` was tested, and the pIC50 [5] was 7.15 and the pIC50 [6] was 6.11.

`COc1ccc2c3ccnc(C)c3n(CCNC(=O)/C=C/c3cccc(Br)c3)c2c1` gave a pIC50 [5] of 7.15 and a pIC50 [6] of 6.39.

`COC(=O)c1cc2c3cc(Cl)ccc3n3c2c(n1)C(C/C=C(\C)CCC=C(C)C)OC(C)=C3` (configuration not stated) was tested, and the pIC50 [13] was 5.81 and the pIC50 [14] was < 5.30.

Compound `COc1ccc(/C=C/C(=O)NCCOc2ccc3c(c2)[nH]c2c(C)nccc23)cc1` has a pIC50 [5] of 6.68 and a pIC50 [6] of 5.96.

Work on `Cc1nccc2c1[nH]c1cc(OCCNC(=O)/C=C/c3cccc(F)c3)ccc12` yielded a pIC50 [5] of 5.56 and a pIC50 [6] of 5.30.

`CC1NC(C(=O)N2CCCCC2)Cc2c1[nH]c1ccccc21` (configuration not stated) gave a pIC50 [10] of 5.02 and a pIC50 [11] of 4.88.

With `CCCCCCCC[C@@H]1N[C@@H](C(=O)NCCC(C)(C)C)Cc2c1[nH]c1ccccc21` the pIC50 [10] was 5.40 and the pIC50 [11] was 5.35.
